Test [1] concerns the target T1, Electric eel-type VI-S AChE (Electrophorus electricus, UniProt O42275).
T1 construct: purchased
Description: AChE inhibition, modified Ellman's method. Type of test: biochemical. On the procedure:
The anti-acetylcholinesterase activity of the extract of O. indicum root and its three constituent compounds was evaluated using a modified Ellman’s method. A microplate-based assay was conducted in triplicate, comprising (i) 25 µL of 1 mM acetylthiocholine iodide, (ii) 50 µL of 0.1 M phosphate buffer (PBS), (iii) 25 µL of the sample, and (iv) 125 µL of 1 mM dithiobisnitrobenzoic acid. Electric eel-type VI-S AChE (0.2 Units/mL) was added. The control group lacked both the sample and enzyme. […] Tacrine served as a reference standard. Enzymatic activity and percent inhibition were assessed. The following equation was used to determine inhibitory activity:Percentage inhibition = [(AE − As)/(AE − AC)] × 100 where AE, AC, and As represent the enzymatic activities of the enzyme, control, and sample, respectively. The AChE inhibitory activity of the samples was expressed as the half-maximal inhibitory concentration (IC50).

A further test deals with Bax. Description: Western blot of Bax in H2O2-exposed SH-SY5Y cells. It is filed as cell-based, Human. The note with it: 250 μM H2O2, pretreatment with extract (1, 3, 10 µg/mL) or baicalein (1, 3, 10 µM). As to the method: (§1) Neuronal cells were pretreated with the extract (1, 3, and 10 µg/mL) or baicalein (1, 3, and 10 µM) for 30 min, followed by induction of oxidative stress with hydrogen peroxide (H2O2). […] NAC (100 µg/mL) was used for the standard substance. For the experiment, SH-SY5Y cells (1 × 10^5 cells/well) were seeded onto a 6-well plate and cultured for 2 days. […] After washing unabsorbed chemicals, the cells were exposed to 250 μM H2O2 for 5 min. Treated cells were lysed with an ice-cold lysis solution. The supernatant was obtained after centrifuging the lysate at 13,500 rpm for 10 min at 4 °C. The Bradford test was used to determine the total protein content. Proteins were separated on a polyvinylidene difluoride membrane using SDS-PAGE. After blocking with BlockAce, the membrane was probed with primary antibodies against BAX, cleaved caspase-3, pTau, and BACE1. Secondary antibodies coupled with horseradish peroxidase were used for detection, followed by enhanced chemiluminescence.

The test system of another test is cleaved caspase-3. Kind of test: Western blot of cleaved caspase-3 in H2O2-exposed SH-SY5Y cells. It is filed as cell-based, Human. Particulars: 250 μM H2O2, pretreatment with extract (1, 3, 10 µg/mL) or baicalein (1, 3, 10 µM). As to the method:
as §1
In general terms: In western blotting, separated proteins are transferred to a membrane and probed.

For another test, the system named is BACE1. Description: Western blot of BACE1 in H2O2-exposed SH-SY5Y cells. It is filed as cell-based, Human. The note with it: 250 μM H2O2, pretreatment with extract (1, 3, 10 µg/mL) or baicalein (1, 3, 10 µM). As to the method: as §1
Test [2] deals with phosphorylated tau protein. Kind of test: Western blot of phosphorylated tau in H2O2-exposed SH-SY5Y cells. It is filed as cell-based, Human. Particulars: 250 μM H2O2, pretreatment with extract (1, 3, 10 µg/mL) or baicalein (1, 3, 10 µM). On the procedure: as §1
A short description of test [3]: DPPH radical scavenging method. The note with it: for IC50: read-out: IC50 DPPH, mean ± SD (n = 3).
Description: After 30 min incubation period, the absorbance at 520 nm was measured using a microplate reader. The DPPH radical scavenging ability was calculated according to the following equation:Percentage inhibition = [(ADPPH − Asample)/(ADPPH − Acontrol)] × 100 where ADPPH, Asample, and Acontrol are the absorbance values of DPPH solution, sample, and control, respectively.
The next test concerns the target Aβ1–42 (Homo sapiens, UniProt P05067). Kind of test: Aβ1–42 aggregation inhibition, thioflavin-T (ThT) fluorescence assay.

The structures appear in SMILES notation.

T1 sequence (O42275 24-633): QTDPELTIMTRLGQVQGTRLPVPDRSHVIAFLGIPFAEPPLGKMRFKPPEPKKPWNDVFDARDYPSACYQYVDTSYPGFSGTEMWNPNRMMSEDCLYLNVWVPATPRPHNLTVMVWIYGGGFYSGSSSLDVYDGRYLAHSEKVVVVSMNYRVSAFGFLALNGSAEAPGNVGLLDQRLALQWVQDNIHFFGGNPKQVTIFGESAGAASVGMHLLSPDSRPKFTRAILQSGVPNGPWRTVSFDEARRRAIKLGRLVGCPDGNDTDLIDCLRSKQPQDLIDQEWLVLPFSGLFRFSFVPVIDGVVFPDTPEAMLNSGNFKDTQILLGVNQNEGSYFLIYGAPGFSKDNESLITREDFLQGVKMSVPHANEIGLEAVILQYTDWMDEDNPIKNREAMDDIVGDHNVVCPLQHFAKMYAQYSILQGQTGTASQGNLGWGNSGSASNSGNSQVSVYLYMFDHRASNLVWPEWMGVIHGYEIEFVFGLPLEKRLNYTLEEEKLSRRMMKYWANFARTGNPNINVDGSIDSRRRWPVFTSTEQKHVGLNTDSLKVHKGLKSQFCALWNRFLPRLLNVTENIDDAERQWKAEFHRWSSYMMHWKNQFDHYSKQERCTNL
Sequence of Aβ1–42 (P05067 672-713 limits assumed): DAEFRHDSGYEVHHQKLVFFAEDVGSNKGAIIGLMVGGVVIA
Description for Aβ1–42: The aggregation of Aβ1–42 was monitored using a thioflavin-T (ThT) fluorescence assay [58]. […] Following a 48 h incubation period, the mixtures were treated with 175 µL of 5 µM ThT solution prepared in a glycine/NaOH buffer at pH 8.5.

A word on the IC50: it is the concentration that inhibits the measured activity by half. In the case of `O=c1cc(-c2ccccc2)oc2cc(O)c(O)c(O)c12` [Baicalein], the IC50 in test [1] was 159 ± 1.15 µM; in test [3], 19.08 ± 0.17 µM. In addition, in the test with Bax, the “expression of pro-apoptotic protein Bax” value is “significantly downregulated”. Further, the “expression of cleaved caspase-3” value with cleaved caspase-3 is recorded as “significantly downregulated”. Further, the “BACE1 expression (H2O2-induced increase)” value in the test with BACE1 is given as “effectively mitigated this increase”. In test [2], the “levels of phosphorylated tau protein” value is recorded as “significantly reduced”.
As to `O=c1cc(-c2ccccc2)oc2cc(O)cc(O)c12` [Chrysin], the IC50 in test [1] was determined as 45.9 ± 1.32 µM; in test [3], 63.3 ± 0.89 µM; on Aβ1–42, 5.86 ± 0.16 µM.
For the compound `COc1c(O)cc2oc(-c3ccccc3)cc(=O)c2c1O` [Oroxylin A], the IC50 was 86.9 ± 1.85 µM in test [1], more than 100 µM in test [3] and 8.19 ± 0.28 µM against Aβ1–42. Besides, the “DPPH radical scavenging activity” value in test [3] (up to 100 µg/mL) is listed as “minimal DPPH radical scavenging activity”.
With `Cc1c(C)c2c(c(C)c1O)CCC(C)(C(=O)O)O2` (centres unmarked) [Trolox, reference compound], the half-maximal inhibitory concentration (IC50) in test [3] was determined as 29.8 ± 1.59 µM.

The record behind these values is article PMC11769049, “Phytomedicine Potential of Oroxylum indicum Root and Its Constituents: Targeting Alzheimer’s Disease” (Plants, 2025).
